Measured values from patent US6329155A, “Methods of identifying agents which regulate release of amyloid precursor protein” (Massachusetts Institute of Technology, priority 1994, dated 2001).
Each block holds one compound with its values, some of them ahead of it. Ends that are not written are not given here.

Legend:
[1] = tested on: mAChR-transfected 293 cell lines; assay: APP processing in mAChR-transfected 293 cell lines, subtype not stated (Western blot); type: cell-based, human
[2] = tested on: serotonin receptor subtype 5HT2; assay: APP derivative release by 3T3 fibroblasts transfected with serotonin receptor subtype 5HT2; type: cell-based; conditions: 3T3 fibroblasts transfected with 5HT2; serum-deprived 24 hours
human m2 mAChR = assay: APP release by human 293 cells transfected with m2 mAChR; type: cell-based; conditions: carbachol
wild-type 293 cells = assay: APP release by wild-type (nontransfected) human 293 cells; type: cell-based; conditions: wild-type cell lines; carbachol
human m4 mAChR = assay: APP release by human 293 cells transfected with m4 mAChR; type: cell-based; conditions: carbachol
[3] = target: T1, PC-12 bradykinin receptors (Rattus norvegicus, UniProt P25023); assay: Secretion of soluble APP (APPs) by PC-12 cells via bradykinin receptors; type: cell-based
T1 construct: functional APPs secretion
T1 sequence (P25023 1-396): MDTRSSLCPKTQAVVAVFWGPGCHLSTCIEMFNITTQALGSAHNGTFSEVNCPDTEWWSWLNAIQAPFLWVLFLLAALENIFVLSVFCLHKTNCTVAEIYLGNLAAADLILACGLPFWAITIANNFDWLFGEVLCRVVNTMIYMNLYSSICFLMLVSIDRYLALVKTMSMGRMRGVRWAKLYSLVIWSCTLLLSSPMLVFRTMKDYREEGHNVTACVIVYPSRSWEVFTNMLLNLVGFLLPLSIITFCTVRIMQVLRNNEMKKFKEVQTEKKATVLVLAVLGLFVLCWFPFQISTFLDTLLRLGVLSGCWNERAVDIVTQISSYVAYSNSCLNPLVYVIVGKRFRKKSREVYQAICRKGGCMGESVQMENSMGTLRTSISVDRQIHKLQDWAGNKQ
Experimental: PC-12 cell lines were obtained from American Type Culture Collection (CRL 1721) and grown in Dulbecco's modified Eagle's medium supplemented with 10% horse serum and 2.5% fetal bovine serum at 37° C. under a 5% carbon dioxide atmosphere. Cells were plated on collagen-coated culture dishes. For differentiation into the neuronal phenotype, 50 ng/ml nerve growth factor was added 24 hours after plating and differentiation was verified after three days by neurite outgrowth. Experiments were conducted with subconfluent monolayers approximately five days after plating.
Media were removed from culture dishes; cells were washed twice with serum-free N2 medium and experiments were done at 37° C. on a hot plate in serum-free N2 medium. Media were removed after incubation periods, desalted on sephadex G-25 columns with water as eluent, lyophilized and resuspended in 100 μl sample butter, and boiled for five minutes. Experiments were carried out in triplicate culture dishes and were repeated three to six times.
Cells were treated with 10 μM bradykinin or with vehicle (control) and secretion of APP was assessed over time, using Western blot and densitometry. […] Membranes were blocked, and probed with monoclonal antibody 22C11. Membranes were washed, and incubated with anti-mouse IgG conjugated to horseradish peroxidase. Bands were visualized with enhanced chemiluminescence using pre-flashed (linear) x-ray films. For densitometric analysis, bands were scanned with a Pharmacia LKB UltroScan XL laser densitometer set at 40 μm vertical interval size and […] horizontal slit width. Data were normalized to vehicle-treated controls which were always run within the same blots.

human m1 mAChR = target: T2, human m1 mAChR (Homo sapiens, UniProt P11229)
T2 sequence (P11229 1-460): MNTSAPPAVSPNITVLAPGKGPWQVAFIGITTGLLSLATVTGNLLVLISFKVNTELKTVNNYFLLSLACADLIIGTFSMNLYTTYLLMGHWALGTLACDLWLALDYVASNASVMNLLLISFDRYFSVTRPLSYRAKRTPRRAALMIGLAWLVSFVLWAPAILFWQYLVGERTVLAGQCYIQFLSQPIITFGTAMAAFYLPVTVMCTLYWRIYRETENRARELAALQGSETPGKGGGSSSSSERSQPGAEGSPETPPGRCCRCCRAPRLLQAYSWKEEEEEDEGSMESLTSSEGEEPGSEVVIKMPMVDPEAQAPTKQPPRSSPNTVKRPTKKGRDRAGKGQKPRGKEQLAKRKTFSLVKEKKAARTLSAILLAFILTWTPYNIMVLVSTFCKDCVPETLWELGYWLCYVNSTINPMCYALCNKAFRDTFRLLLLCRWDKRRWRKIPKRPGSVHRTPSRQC

human m3 mAChR = target: T3, human m3 mAChR (Homo sapiens, UniProt P20309); type: cell-based
T3 construct: expressed in transfected cells; m3 200,000 receptors per cell
T3 sequence (P20309 whole entry): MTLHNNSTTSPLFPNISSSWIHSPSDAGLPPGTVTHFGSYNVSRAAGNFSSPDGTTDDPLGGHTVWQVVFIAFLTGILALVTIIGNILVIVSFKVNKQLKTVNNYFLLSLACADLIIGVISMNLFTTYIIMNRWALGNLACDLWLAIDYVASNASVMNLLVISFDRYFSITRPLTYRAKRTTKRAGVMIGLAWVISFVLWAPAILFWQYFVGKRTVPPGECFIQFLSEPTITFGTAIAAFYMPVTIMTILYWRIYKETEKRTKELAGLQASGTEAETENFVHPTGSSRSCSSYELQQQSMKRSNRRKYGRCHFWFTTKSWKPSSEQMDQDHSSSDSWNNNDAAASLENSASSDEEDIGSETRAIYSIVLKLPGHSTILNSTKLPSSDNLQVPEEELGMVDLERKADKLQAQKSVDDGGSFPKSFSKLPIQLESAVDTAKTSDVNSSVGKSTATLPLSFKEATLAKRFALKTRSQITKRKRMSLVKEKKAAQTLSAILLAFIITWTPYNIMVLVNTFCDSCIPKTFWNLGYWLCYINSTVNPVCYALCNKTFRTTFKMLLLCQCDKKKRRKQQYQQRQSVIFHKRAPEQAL

[4] = stimulation with carbachol, Western blot

Compound: CNc1ccc2oc(C[C@H]3O[C@@]4(CC[C@H]3C)O[C@H]([C@H](C)C(=O)c3ccc[nH]3)[C@H](C)C[C@H]4C)nc2c1C(=O)O [A23187]
stimulation of basal APP release by calcium ionophore alone ([1]; 10 μm ionophore, cell line not stated in text (FIG. 1B)): failure

release of N-terminal non-amyloidogenic APP derivatives [2]: increases release
Compound: NCCc1c[nH]c2ccc(O)cc12 [Serotonin]

Compound: C[N+](C)(C)CCOC(N)=O [carbachol]
basal release of APP fragments, effect of agonist (human m2 mAChR): not stimulated
128 kD APP derivative secreted into the culture medium [1, 4]: increase
abundance of cell-associated 115 kD APP [1, 4]: remained unaffected
abundance of cell-associated 141 kD APP [1, 4]: decreased
basal release of APP fragments, effect of agonist (wild-type 293 cells): not stimulated
basal release of APP fragments, effect of agonist (human m4 mAChR): not stimulated

Compound: CN[C@@H]1C[C@H]2O[C@@](C)([C@@H]1OC)n1c3ccccc3c3c4c(c5c6ccccc6n2c5c31)C(=O)NC4 [staurosporine]
effect on bradykinin-induced APPS secretion ([3]; PC-12 cells, added with bradykinin): inhibited
effect on receptor-activated (carbachol-induced) APP release (human m1 mAChR): inhibited
effect on receptor-activated (carbachol-induced) APP release (human m3 mAChR): inhibited

Compound: RPPGFSPFR [bradykinin]
secretion of soluble N-terminal APP derivatives (APPS) into the medium ([3]; NGF-differentiated PC-12 cells, 10 μM bradykinin vs vehicle): increases
APPs secretion in undifferentiated PC-12 cells ([3]; PC-12 cells without nerve growth factor): stimulates
